Test results as given in ChEMBL document CHEMBL3046161, “Synthesis of potential antitubercular and antimicrobial s-triazine-based scaffolds via Suzuki cross-coupling reaction” (2013).
In brackets after ≈: the same amount, converted by molar mass.

What was measured:
Type in all cases: functional
Staphylococcus aureus [1] = test: Antibacterial activity against Staphylococcus aureus MTCC 96 assessed as growth inhibition at 3.12 to 50 ug/mL after 24 hr by agar disk diffusion method
[2] = tested on: Mycobacterium tuberculosis; test: Antimycobacterial activity against Mycobacterium tuberculosis H37Rv assessed as growth inhibition after 12 to 28 days by Lowenstein and Jensen agar dilution method
Aspergillus niger [3] = test: Antifungal activity against Aspergillus niger MTCC 282 assessed as growth inhibition at 3.12 to 50 ug/mL after 24 hr by agar disk diffusion method
Bacillus cereus [4] = test: Antibacterial activity against Bacillus cereus MTCC 430 assessed as growth inhibition after 24 hr by agar streak dilution method; conditions: MTCC 430, 24 h
Aspergillus clavatus [5] = test: Antifungal activity against Aspergillus clavatus MTCC 1323 assessed as growth inhibition after 48 hr by agar streak dilution method; conditions: MTCC 1323, 48 h
Bacillus cereus [6] = test: Antibacterial activity against Bacillus cereus MTCC 430 assessed as growth inhibition at 3.12 to 50 ug/mL after 24 hr by agar disk diffusion method
Escherichia coli [7] = test: Antibacterial activity against Escherichia coli MTCC 739 assessed as growth inhibition at 3.12 to 50 ug/mL after 24 hr by agar disk diffusion method
[8] = tested on: Mycobacterium tuberculosis; test: Antimycobacterial activity against Mycobacterium tuberculosis H37Rv assessed as growth inhibition at MIC after 12 to 28 days by Lowenstein and Jensen agar dilution method
Salmonella typhi [9] = test: Antibacterial activity against Salmonella enterica subsp. enterica serovar Typhi MTCC 733 assessed as growth inhibition at 3.12 to 50 ug/mL after 24 hr by agar disk diffusion method
Shigella flexneri [10] = test: Antibacterial activity against Shigella flexneri MTCC 1457 assessed as growth inhibition after 24 hr by agar streak dilution method; conditions: MTCC 1457, 24 h
Pseudomonas aeruginosa [11] = test: Antibacterial activity against Pseudomonas aeruginosa MTCC 741 assessed as growth inhibition at 3.12 to 50 ug/mL after 24 hr by agar disk diffusion method
Staphylococcus aureus [12] = test: Antibacterial activity against Staphylococcus aureus MTCC 96 assessed as growth inhibition after 24 hr by agar streak dilution method; conditions: MTCC 96, 24 h
Proteus vulgaris [13] = test: Antibacterial activity against Proteus vulgaris MTCC 1771 assessed as growth inhibition after 24 hr by agar streak dilution method; conditions: MTCC 1771, 24 h
Candida albicans [14] = test: Antifungal activity against Candida albicans MTCC 183 assessed as growth inhibition after 48 hr by agar streak dilution method; conditions: MTCC 183, 48 h
Pseudomonas aeruginosa [15] = test: Antibacterial activity against Pseudomonas aeruginosa MTCC 741 assessed as growth inhibition after 24 hr by agar streak dilution method; conditions: MTCC 741, 24 h
Aspergillus clavatus [16] = test: Antifungal activity against Aspergillus clavatus MTCC 1323 assessed as growth inhibition at 3.12 to 50 ug/mL after 24 hr by agar disk diffusion method
Aspergillus fumigatus [17] = test: Antifungal activity against Aspergillus fumigatus MTCC 343 assessed as growth inhibition at 3.12 to 50 ug/mL after 24 hr by agar disk diffusion method
Escherichia coli [18] = test: Antibacterial activity against Escherichia coli MTCC 739 assessed as growth inhibition after 24 hr by agar streak dilution method; conditions: MTCC 739, 24 h
Aspergillus niger [19] = test: Antifungal activity against Aspergillus niger MTCC 282 assessed as growth inhibition after 48 hr by agar streak dilution method; conditions: MTCC 282, 48 h
Candida albicans [20] = test: Antifungal activity against Candida albicans MTCC 183 assessed as growth inhibition at 3.12 to 50 ug/mL after 24 hr by agar disk diffusion method
Shigella flexneri [21] = test: Antibacterial activity against Shigella flexneri MTCC 1457 assessed as growth inhibition at 3.12 to 50 ug/mL after 24 hr by agar disk diffusion method
Salmonella typhi [22] = test: Antibacterial activity against Salmonella enterica subsp. enterica serovar Typhi MTCC 733 assessed as growth inhibition after 24 hr by agar streak dilution method; conditions: MTCC 733, 24 h
Klebsiella pneumoniae [23] = test: Antibacterial activity against Klebsiella pneumoniae MTCC 109 assessed as growth inhibition after 24 hr by agar streak dilution method; conditions: MTCC 109, 24 h
[24] = tested on: Mycobacterium tuberculosis; test: Antimycobacterial activity against Mycobacterium tuberculosis H37Rv assessed as growth inhibition measured within 10 days by BACTEC MGIT method; conditions: 240 h
Proteus vulgaris [25] = test: Antibacterial activity against Proteus vulgaris MTCC 1771 assessed as growth inhibition at 3.12 to 50 ug/mL after 24 hr by agar disk diffusion method
Klebsiella pneumoniae [26] = test: Antibacterial activity against Klebsiella pneumoniae MTCC 109 assessed as growth inhibition at 3.12 to 50 ug/mL after 24 hr by agar disk diffusion method
Aspergillus fumigatus [27] = test: Antifungal activity against Aspergillus fumigatus MTCC 343 assessed as growth inhibition after 48 hr by agar streak dilution method; conditions: MTCC 343, 48 h

SMILES	inhibition zone (IZ) (Staphylococcus aureus [1]) [mm]	MIC [2] [µg/mL]	inhibition zone (IZ) (Aspergillus niger [3]) [mm]	MIC (Bacillus cereus [4]) [µg/mL]	MIC (Aspergillus clavatus [5]) [µg/mL]	inhibition zone (IZ) (Bacillus cereus [6]) [mm]	inhibition zone (IZ) (Escherichia coli [7]) [mm]	growth inhibition (GI) [8] [%]	inhibition zone (IZ) (Salmonella typhi [9]) [mm]	MIC (Shigella flexneri [10]) [µg/mL]	inhibition zone (IZ) (Pseudomonas aeruginosa [11]) [mm]	MIC (Staphylococcus aureus [12]) [µg/mL]	MIC (Proteus vulgaris [13]) [µg/mL]	MIC (Candida albicans [14]) [µg/mL]	MIC (Pseudomonas aeruginosa [15]) [µg/mL]	inhibition zone (IZ) (Aspergillus clavatus [16]) [mm]	inhibition zone (IZ) (Aspergillus fumigatus [17]) [mm]	MIC (Escherichia coli [18]) [µg/mL]	MIC (Aspergillus niger [19]) [µg/mL]	inhibition zone (IZ) (Candida albicans [20]) [mm]	other results
CC(=O)Nc1ccc2nc(NC(=O)CNc3ccc(-c4nc(N5CC(C)CC(C)C5)nc(N5CC(C)CC(C)C5)n4)cc3)sc2c1 (stereo not drawn)	19	50 (≈ 77.9 µM)	24	50 (≈ 77.9 µM)	50 (≈ 77.9 µM)	17	19	98	17	50 (≈ 77.9 µM)	19	50 (≈ 77.9 µM)	6.25 (≈ 9.74 µM)	25 (≈ 39 µM)	50 (≈ 77.9 µM)	24	<10	50 (≈ 77.9 µM)	6.25 (≈ 9.74 µM)	22	inhibition zone (IZ) (Shigella flexneri [21]): 13 mm; MIC (Salmonella typhi [22]): 50 µg/mL (≈ 77.9 µM); MIC (Klebsiella pneumoniae [23]): 50 µg/mL (≈ 77.9 µM); MIC [24]: > 6.25 µg/mL; inhibition zone (IZ) (Proteus vulgaris [25]): 26 mm; inhibition zone (IZ) (Klebsiella pneumoniae [26]): 21 mm; MIC (Aspergillus fumigatus [27]): > 50 µg/mL
CC1CC(C)CN(c2nc(-c3ccc(NCC(=O)Nc4nc5ccc(Cl)cc5s4)cc3)nc(N3CC(C)CC(C)C3)n2)C1 (stereo not drawn)	22	62.5 (≈ 101 µM)	17	6.25 (≈ 10.1 µM)	> 50	27	21	97	22	6.25 (≈ 10.1 µM)	26	6.25 (≈ 10.1 µM)	50 (≈ 80.7 µM)	50 (≈ 80.7 µM)	25 (≈ 40.4 µM)	<10	<10	25 (≈ 40.4 µM)	50 (≈ 80.7 µM)	12	inhibition zone (IZ) (Shigella flexneri [21]): 26 mm; MIC (Salmonella typhi [22]): 25 µg/mL (≈ 40.4 µM); MIC (Klebsiella pneumoniae [23]): 50 µg/mL (≈ 80.7 µM); MIC [24]: > 6.25 µg/mL; inhibition zone (IZ) (Proteus vulgaris [25]): 20 mm; inhibition zone (IZ) (Klebsiella pneumoniae [26]): 23 mm; MIC (Aspergillus fumigatus [27]): > 50 µg/mL
CC1CC(C)CN(c2nc(-c3ccc(NCC(=O)Nc4nc5ccc(Br)cc5s4)cc3)nc(N3CC(C)CC(C)C3)n2)C1 (stereo not drawn)	25	12.5 (≈ 18.8 µM)	19	6.25 (≈ 9.42 µM)	50 (≈ 75.3 µM)	26	23	99	24	12.5 (≈ 18.8 µM)	25	1.56 (≈ 2.35 µM)	25 (≈ 37.7 µM)	50 (≈ 75.3 µM)	25 (≈ 37.7 µM)	26	19	12.5 (≈ 18.8 µM)	50 (≈ 75.3 µM)	18	inhibition zone (IZ) (Shigella flexneri [21]): 25 mm; MIC (Salmonella typhi [22]): 6.25 µg/mL (≈ 9.42 µM); MIC (Klebsiella pneumoniae [23]): 50 µg/mL (≈ 75.3 µM); MIC [24]: > 6.25 µg/mL; inhibition zone (IZ) (Proteus vulgaris [25]): 23 mm; inhibition zone (IZ) (Klebsiella pneumoniae [26]): 11 mm; MIC (Aspergillus fumigatus [27]): 50 µg/mL (≈ 75.3 µM)
CC1CC(C)CN(c2nc(-c3ccc(NCC(=O)Nc4nc5ccc(I)cc5s4)cc3)nc(N3CC(C)CC(C)C3)n2)C1 (stereo not drawn)	21	200 (≈ 281 µM)	<10	25 (≈ 35.2 µM)	50 (≈ 70.4 µM)	24	18	96	17	25 (≈ 35.2 µM)	16	12.5 (≈ 17.6 µM)	12.5 (≈ 17.6 µM)	50 (≈ 70.4 µM)	50 (≈ 70.4 µM)	11	<10	50 (≈ 70.4 µM)	50 (≈ 70.4 µM)	20	inhibition zone (IZ) (Shigella flexneri [21]): 23 mm; MIC (Salmonella typhi [22]): 50 µg/mL (≈ 70.4 µM); MIC (Klebsiella pneumoniae [23]): 50 µg/mL (≈ 70.4 µM); MIC [24]: > 6.25 µg/mL; inhibition zone (IZ) (Proteus vulgaris [25]): 26 mm; inhibition zone (IZ) (Klebsiella pneumoniae [26]): 12 mm; MIC (Aspergillus fumigatus [27]): > 50 µg/mL
